{"source": "patent US12692254B2", "about": "“Benzimidazole inhibitors of PAD enzymes” (BRISTOL-MYERS SQUIBB COMPANY, priority 2018, dated 2026)"}
{"molecular_target": "human PAD4 (hPAD4) (Homo sapiens, UniProt Q9UM07)", "sequence (Q9UM07 whole entry)": "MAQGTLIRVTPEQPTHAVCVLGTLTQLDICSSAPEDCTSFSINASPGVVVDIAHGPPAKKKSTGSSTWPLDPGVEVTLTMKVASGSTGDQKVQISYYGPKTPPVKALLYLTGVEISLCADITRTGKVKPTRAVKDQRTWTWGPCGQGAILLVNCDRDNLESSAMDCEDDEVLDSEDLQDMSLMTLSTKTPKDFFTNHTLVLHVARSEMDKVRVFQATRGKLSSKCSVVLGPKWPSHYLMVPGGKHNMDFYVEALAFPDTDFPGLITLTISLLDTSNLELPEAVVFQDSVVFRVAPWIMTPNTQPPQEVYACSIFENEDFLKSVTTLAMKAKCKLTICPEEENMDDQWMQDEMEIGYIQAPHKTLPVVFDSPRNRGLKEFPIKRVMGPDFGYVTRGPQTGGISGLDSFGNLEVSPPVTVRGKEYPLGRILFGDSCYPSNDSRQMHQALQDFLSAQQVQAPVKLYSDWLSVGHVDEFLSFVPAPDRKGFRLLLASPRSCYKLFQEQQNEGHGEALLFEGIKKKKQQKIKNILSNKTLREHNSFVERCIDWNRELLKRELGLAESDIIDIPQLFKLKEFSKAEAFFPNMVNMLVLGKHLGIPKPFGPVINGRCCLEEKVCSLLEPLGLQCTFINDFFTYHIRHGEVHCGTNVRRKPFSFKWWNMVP", "experiment": "RFMS human PAD4 functional assay (rapid-fire mass spectrum)", "format": "biochemical", "settings": "5 nM hPAD4 enzyme, 250 μM BAEE, 50 μM Calcium; 30 min preincubation, 90 min reaction at 37° C.", "how_it_was_run": "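PAD4 (10 nM) preincubated 30 min with compound (top final 50 μM), then BAEE substrate added in pH 7.5 HEPES buffer with DTT, 50 μM calcium, TPEN; 90 min at 37° C. After TCA quench, citrulline derivatized with phenyl glyoxal (4 mM final, 30 min, 37° C) and quantified by RapidFire MS against internal standard.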", "units": {"IC50": "µM"}}
{"smiles": "COc1cccc(-n2cc(Cn3c(-c4cc5cccnc5n4CC4CC4)nc4cc(C(=O)N5CC6CCC5[C@@H]6N)cc(OC)c43)cn2)n1", "note": "(stereo partly drawn) [Example 365, (7R)-2-{2-[1-(cyclopropylmethyl)-1H-pyrrolo[2,3-b]pyridin-2-yl]-7-methoxy-1-{[1-(6-methoxypyridin-2-yl)-1H-pyrazol-4-yl]methyl}-1H-1,3-benzodiazole-5-carbonyl}-2-azabicyclo[2.2.1]heptan-7-amine]", "IC50": 0.027}
{"smiles": "COc1cc(C(=O)N2CC3CCC2[C@@H]3N)cc2nc(-c3cc4cccnc4n3CC3CC3)n(Cc3cnn(-c4cnccn4)c3)c12", "note": "(stereo partly drawn) [Example 373, (7R)-2-{2-[1-(cyclopropylmethyl)-1H-pyrrolo[2,3-b]pyridin-2-yl]-7-methoxy-1-{[1-(pyrazin-2-yl)-1H-pyrazol-4-yl]methyl}-1H-1,3-benzodiazole-5-carbonyl}-2-azabicyclo[2.2.1]heptan-7-amine]", "IC50": 0.034}
{"smiles": "COc1cc(C(=O)N2C[C@H]3CC[C@@H]2[C@@H]3N)cc2nc(-c3cccn3CC3CC3)n(CC3CN(c4ccnc(C)n4)C3)c12", "note": "[Example 314, (1R,4R,7R)-2-{2-[1-(cyclopropylmethyl)-1H-pyrrol-2-yl]-7-methoxy-1-{[1-(2-methylpyrimidin-4-yl)azetidin-3-yl]methyl}-1H-1,3-benzodiazole-5-carbonyl}-2-azabicyclo[2.2.1]heptan-7-amine]", "IC50": 0.552}
{"smiles": "COc1cc(C(=O)N2C[C@H]3CC[C@@H]2[C@@H]3N)cc2nc(-c3cc4ccccc4n3CC3CC3)n(CC3CN(C(=O)c4ccc(-c5ccc(O)cc5)cc4)C3)c12", "note": "[Example 149, 4′-[3-({5-[(1R,4R,7R)-7-amino-2-azabicyclo[2.2.1]heptane-2-carbonyl]-2-[1-(cyclopropylmethyl)-1H-indol-2-yl]-7-methoxy-1H-1,3-benzodiazol-1-yl}methyl)azetidine-1-carbonyl]-[1,1′-biphenyl]-4-ol]", "IC50": 0.019}
{"smiles": "Cn1cc(Cn2c(-c3cc4ccccc4n3CC3CC3)nc3cc(C(=O)N4CC5CCC4[C@@H]5N)cc(F)c32)cn1", "note": "(stereo partly drawn) [Example 483, (7R)-2-{2-[1-(cyclopropylmethyl)-1H-indol-2-yl]-7-fluoro-1-[(1-methyl-1H-pyrazol-4-yl)methyl]-1H-1,3-benzodiazole-5-carbonyl}-2-azabicyclo[2.2.1]heptan-7-amine]", "IC50": 0.03}
{"smiles": "COc1cc(C(=O)N2C[C@H]3CC[C@@H]2[C@@H]3N)cc2nc(-c3cc4ccccc4n3CC3CC3)n(CC3CN(c4nccnc4C#N)C3)c12", "note": "[Example 64, 3-[3-({5-[(1R,4R,7R)-7-amino-2-azabicyclo[2.2.1]heptane-2-carbonyl]-2-[1-(cyclopropylmethyl)-1H-indol-2-yl]-7-methoxy-1H-1,3-benzodiazol-1-yl}methyl)azetidin-1-yl]pyrazine-2-carbonitrile]", "IC50": 0.023}
{"smiles": "COc1cc(C(=O)N2CC3CCC2[C@@H]3N)cc2nc(-c3cc4cccnc4n3CC3CC3)n(CC3CN(C(=O)c4ccc(F)cc4F)C3)c12", "note": "(stereo partly drawn) [Example 434, (7R)-2-{2-[1-(cyclopropylmethyl)-1H-pyrrolo[2,3-b]pyridin-2-yl]-1-{[1-(2,4-difluorobenzoyl)azetidin-3-yl]methyl}-7-methoxy-1H-1,3-benzodiazole-5-carbonyl}-2-azabicyclo[2.2.1]heptan-7-amine]", "IC50": 0.033}
{"smiles": "COc1cc(C(=O)N2C[C@H]3CC[C@@H]2[C@@H]3N)cc2nc(-c3cc4cccnc4n3CC3CC3)n(C3CN(c4ccnc(C5CC5)n4)C3)c12", "note": "[Example 70, (1R,4R,7R)-2-{2-[1-(cyclopropylmethyl)-1H-pyrrolo[2,3-b]pyridin-2-yl]-1-[1-(2-cyclopropylpyrimidin-4-yl)azetidin-3-yl]-7-methoxy-1H-1,3-benzodiazole-5-carbonyl}-2-azabicyclo[2.2.1]heptan-7-amine]", "IC50": 0.087}
{"smiles": "COc1cc(C(=O)N2CC3CCC2[C@@H]3N)cc2nc(-c3cc4ccccc4n3CC3CC3)n(C[C@H]3CCN(c4ccnc(C#N)n4)C3)c12", "note": "(stereo partly drawn) [Example 223, 4-[(3S)-3-({5-[(1R,4R,7R)-7-amino-2-azabicyclo[2.2.1]heptane-2-carbonyl]-2-[1-(cyc1opropylmethyl)-1H-indo1-2-yl]-7-methoxy-1H-1,3-benzodiazo1-1-yl}methyl)pyrrolidin-1-yl]pyrimidine-2-carbonitrile]", "IC50": 0.018}
{"smiles": "COc1cc(C(=O)N2C[C@H]3CC[C@@H]2[C@@H]3N)cc2nc(-c3cc4ccccc4n3CC3CC3)n(CC3CN(C(=O)c4ccc(C#N)cc4F)C3)c12", "note": "[Example 163, 4-[3-({5-[(1R,4R,7R)-7-amino-2-azabicyclo[2.2.1]heptane-2-carbonyl]-2-[1-(cyclopropylmethyl)-1H-indol-2-yl]-7-methoxy-1H-1,3-benzodiazol-1-yl}methyl)azetidine-1-carbonyl]-3-fluorobenzonitrile]", "IC50": 0.026}
{"smiles": "COc1cc(C(=O)N2C[C@H]3CC[C@@H]2[C@@H]3N)cc2nc(-c3cc4ccc(Cl)cc4n3CC3CC3)n(CC3CN(c4cncc(C)c4)C3)c12", "note": "[Example 23, (1R,4R,7R)-2-{2-[6-chloro-1-(cyclopropylmethyl)-1H-indol-2-yl]-7-methoxy-1-{[1-(5-methylpyridin-3-yl)azetidin-3-yl]methyl}-1H-1,3-benzodiazole-5-carbonyl}-2-azabicyclo[2.2.1]heptan-7-amine]", "IC50": 0.062}
{"smiles": "COc1cc(C(=O)N2CC3(CCCNC3)C2)cc2nc(-c3cc4ccccc4n3CC3CC3)n(Cc3cnn(C)c3)c12", "note": "[Example 288, 2-{2-[1-(cyclopropylmethyl)-1H-indol-2-yl]-7-methoxy-1-[(1-methyl-1H-pyrazol-4-yl)methyl]-1H-1,3-benzodiazole-5-carbonyl}-2,6-diazaspiro[3.5]nonane]", "IC50": 1.28}
{"smiles": "COc1cc(C(=O)N2C[C@H]3CC[C@@H]2[C@@H]3N)cc2nc(-c3cc4cccnc4n3CC3CC3)n(CC3CN(c4nc(O)ncc4C#N)C3)c12", "note": "[Example 79, 4-[3-({5-[(1R,4R,7R)-7-amino-2-azabicyclo[2.2.1]heptane-2-carbonyl]-2-[1-(cyclopropylmethyl)-1H-pyrrolo[2,3-b]pyridin-2-yl]-7-methoxy-1H-1,3-benzodiazol-1-yl}methyl)azetidin-1-yl]-2-hydroxypyrimidine-5-carbonitrile]", "IC50": 0.4}
{"smiles": "COc1cccc(-n2cc(Cn3c(-c4cc5cccnc5n4CC4CC4)nc4cc(C(=O)N5C[C@H](N)C[C@@H](F)C5)cc(OC)c43)cn2)n1", "note": "[Example 369, (3R,5R)-1-{2-[1-(cyclopropylmethyl)-1H-pyrrolo[2,3-b]pyridin-2-yl]-7-methoxy-1-{[1-(6-methoxypyridin-2-yl)-1H-pyrazol-4-yl]methyl}-1H-1,3-benzodiazole-5-carbonyl}-5-fluoropiperidin-3-amine]", "IC50": 0.029}
{"smiles": "C/C=C/C(=O)N1CC(Cn2c(-c3cc4cccnc4n3CC3CC3)nc3cc(C(=O)N4C[C@H]5CC[C@@H]4[C@@H]5N)cc(OC)c32)C1", "note": "[Example 116, (2E)-1-[3-({5-[(1R,4R,7R)-7-amino-2-azabicyclo[2.2.1]heptane-2-carbonyl]-2-[1-(cyclopropylmethyl)-1H-pyrrolo[2,3-b]pyridin-2-yl]-7-methoxy-1H-1,3-benzodiazol-1-yl}methyl)azetidin-1-yl]but-2-en-1-one]", "IC50": 0.059}
{"smiles": "COc1cc(C(=O)N2C[C@H]3CC[C@@H]2[C@@H]3N)cc2nc(-c3cc4cccnc4n3CC3CC3)n(C3CN(S(=O)(=O)c4ccccc4)C3)c12", "note": "[Example 329, (1R,4R,7R)-2-{1-[1-(benzenesulfonyl)azetidin-3-yl]-2-[1-(cyclopropylmethyl)-1H-pyrrolo[2,3-b]pyridin-2-yl]-7-methoxy-1H-1,3-benzodiazole-5-carbonyl}-2-azabicyclo[2.2.1]heptan-7-amine]", "IC50": 0.163}
{"smiles": "COc1cc(C(=O)N2CC3CCC2[C@@H]3N)cc2nc(-c3cc4ccccc4n3CC3CC3)n(CC3CN(C(=O)c4cccs4)C3)c12", "note": "(stereo partly drawn) [Example 457, (7R)-2-{2-[1-(cyclopropylmethyl)-1H-indol-2-yl]-7-methoxy-1-{[1-(thiophene-2-carbonyl)azetidin-3-yl]methyl}-1H-1,3-benzodiazole-5-carbonyl}-2-azabicyclo[2.2.1]heptan-7-amine]", "IC50": 0.063}
{"smiles": "COc1cc(C(=O)N2C[C@H](N)C[C@@H](F)C2)cc2nc(-c3cc4ccccc4n3CC3CC3)n(CCCN3CCCC3=O)c12", "note": "[Example 274, 1-(3-{5-[(3R,5R)-3-amino-5-fluoropiperidine-1-carbonyl]-2-[1-(cyclopropylmethyl)-1H-indol-2-yl]-7-methoxy-1H-1,3-benzodiazol-1-yl}propyl)pyrrolidin-2-one]", "IC50": 0.261}
{"smiles": "COc1cc(C(=O)N2CC3CCC2[C@@H]3N)cc2nc(-c3cc4cccnc4n3CC3CC3)n(C3CN(S(=O)(=O)C4CC4)C3)c12", "note": "(stereo partly shown) [Example 328]", "IC50": 0.125}
{"smiles": "COc1cc(C(=O)N2C[C@H](N)C[C@@H](F)C2)cc2nc(-c3cc4ccccc4n3CC3CC3)n(Cc3cccs3)c12", "note": "[Example 255, (3R,5R)-1-{2-[1-(cyclopropylmethyl)-1H-indol-2-yl]-7-methoxy-1-[(thiophen-2-yl)methyl]-1H-1,3-benzodiazole-5-carbonyl}-5-fluoropiperidin-3-amine]", "IC50": 0.037}
{"smiles": "COc1cc(C(=O)N2CC3CCC2[C@@H]3N)cc2nc(-c3cc4cccnc4n3CC3CC3)n(CC3CN(C(=O)Nc4ccccc4)C3)c12", "note": "(stereo partly drawn) [Example 455, 3-({5-[(7R)-7-amino-2-azabicyclo[2.2.1]heptane-2-carbonyl]-2-[1-(cyclopropylmethyl)-1H-pyrrolo[2,3-b]pyridin-2-yl]-7-methoxy-1H-1,3-benzodiazol-1-yl}methyl)-N-phenylazetidine-1-carboxamide]", "IC50": 0.059}
{"smiles": "COc1cc(C(=O)N2C[C@H]3CC[C@@H]2[C@@H]3N)cc2nc(-c3cc4cccnc4n3CC3CC3)n(C[C@H]3CCNC3)c12", "note": "[Example 263, (1R,4R,7R)-2-{2-[1-(cyclopropylmethyl)-1H-pyrrolo[2,3-b]pyridin-2-yl]-7-methoxy-1-{[(3S)-pyrrolidin-3-yl]methyl}-1H-1,3-benzodiazole-5-carbonyl}-2-azabicyclo[2.2.1]heptan-7-amine]", "IC50": 0.02}
